# Data from PubChem BioAssay (NCI).
#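 Dose response: 5 concentrations. Exposure: 48 h. Format: 96-well plates. Endpoint: linear interpolation; highest concentration if not reached. The concentration for 50% growth inhibition is given as GI50. TGI: concentration producing complete growth inhibition.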
# What was measured:
# Assay in all cases: DTP human tumour cell line panel, 48 h
# SNB-75 CNS = test system: SNB-75 CNS
# SF-268 CNS = test system: SF-268 CNS
# OVCAR-5 ovarian = test system: OVCAR-5 ovarian
# NCI-H522 lung = test system: NCI-H522 lung
# M14 melanoma = test system: M14 melanoma
# SNB-19 CNS = test system: SNB-19 CNS
# KM12 colon = test system: KM12 colon
# SN12C renal = test system: SN12C renal
# UO-31 renal = test system: UO-31 renal
# SR leukemia = test system: SR leukemia
# MALME-3M melanoma = test system: MALME-3M melanoma
# EKVX NSCLC = test system: EKVX NSCLC
# MCF7 breast = test system: MCF7 breast
# HCT-116 colon = test system: HCT-116 colon
# RPMI-8226 leukemia = test system: RPMI-8226 leukemia
# NCI-H460 lung = test system: NCI-H460 lung
# PC-3 prostate = test system: PC-3 prostate
# OVCAR-8 ovarian = test system: OVCAR-8 ovarian
# HOP-92 NSCLC = test system: HOP-92 NSCLC
# CCRF-CEM leukemia = test system: CCRF-CEM leukemia
# RXF 393 renal = test system: RXF 393 renal
# TK-10 renal = test system: TK-10 renal
# DU-145 prostate = test system: DU-145 prostate
# SK-MEL-28 melanoma = test system: SK-MEL-28 melanoma
# SK-MEL-2 melanoma = test system: SK-MEL-2 melanoma
# NCI-H226 lung = test system: NCI-H226 lung
# HCC-2998 colon = test system: HCC-2998 colon
# MOLT-4 leukemia = test system: MOLT-4 leukemia
# A498 renal = test system: A498 renal
# 786-0 renal = test system: 786-0 renal
# SK-OV-3 ovarian = test system: SK-OV-3 ovarian
# MDA-MB-231 breast = test system: MDA-MB-231 breast
# SF-295 CNS = test system: SF-295 CNS
# HL-60(TB) leukemia = test system: HL-60(TB) leukemia
# OVCAR-3 ovarian = test system: OVCAR-3 ovarian
# LOX IMVI melanoma = test system: LOX IMVI melanoma
# SK-MEL-5 melanoma = test system: SK-MEL-5 melanoma
# HT29 colon = test system: HT29 colon
# UACC-257 melanoma = test system: UACC-257 melanoma
# CAKI-1 renal = test system: CAKI-1 renal
# NCI-H23 lung = test system: NCI-H23 lung
# SW-620 colon = test system: SW-620 colon
# UACC-62 melanoma = test system: UACC-62 melanoma
# NCI/ADR-RES ovarian = test system: NCI/ADR-RES ovarian
# HOP-62 NSCLC = test system: HOP-62 NSCLC
# COLO 205 colon = test system: COLO 205 colon
# ACHN renal = test system: ACHN renal
# BT-549 breast = test system: BT-549 breast
# HS 578T breast = test system: HS 578T breast
# K-562 leukemia = test system: K-562 leukemia
# SF-539 CNS = test system: SF-539 CNS
# MDA-MB-435 = test system: MDA-MB-435
# HCT-15 colon = test system: HCT-15 colon
# T-47D breast = test system: T-47D breast
# OVCAR-4 ovarian = test system: OVCAR-4 ovarian
smiles,measurement,setting,value
Nc1cc2c([nH]c[n+]2CC#CCCl)c(SCC#CCCl)n1,GI50,SNB-75 CNS,1.14 µM
same,TGI,SNB-75 CNS,2.4 µM
same,GI50,SF-268 CNS,0.552 µM
same,TGI,SF-268 CNS,2.01 µM
same,GI50,OVCAR-5 ovarian,2.13 µM
same,TGI,OVCAR-5 ovarian,3.68 µM
same,GI50,NCI-H522 lung,0.522 µM
same,TGI,NCI-H522 lung,2.08 µM
same,GI50,M14 melanoma,1.11 µM
same,TGI,M14 melanoma,2.49 µM
same,GI50,SNB-19 CNS,1.4 µM
same,TGI,SNB-19 CNS,2.84 µM
same,GI50,KM12 colon,1.25 µM
same,TGI,KM12 colon,2.68 µM
same,GI50,SN12C renal,1.16 µM
same,TGI,SN12C renal,3.42 µM
same,GI50,UO-31 renal,0.763 µM
same,TGI,UO-31 renal,2.33 µM
same,GI50,SR leukemia,0.336 µM
same,TGI,SR leukemia,16.4 µM
same,GI50,MALME-3M melanoma,1.09 µM
same,TGI,MALME-3M melanoma,3.17 µM
same,GI50,EKVX NSCLC,1.25 µM
same,TGI,EKVX NSCLC,2.76 µM
same,GI50,MCF7 breast,0.442 µM
same,TGI,MCF7 breast,2.18 µM
same,GI50,HCT-116 colon,0.738 µM
same,TGI,HCT-116 colon,2.35 µM
same,GI50,RPMI-8226 leukemia,1 µM
same,TGI,RPMI-8226 leukemia,6.57 µM
same,GI50,NCI-H460 lung,0.374 µM
same,TGI,NCI-H460 lung,1.5 µM
same,GI50,PC-3 prostate,1.4 µM
same,TGI,PC-3 prostate,4.34 µM
same,GI50,OVCAR-8 ovarian,1.62 µM
same,TGI,OVCAR-8 ovarian,6.02 µM
same,GI50,HOP-92 NSCLC,1.84 µM
same,TGI,HOP-92 NSCLC,3.86 µM
same,GI50,CCRF-CEM leukemia,0.562 µM
same,TGI,CCRF-CEM leukemia,> 100 µM
same,GI50,RXF 393 renal,1.2 µM
same,TGI,RXF 393 renal,2.56 µM
same,GI50,TK-10 renal,1.42 µM
same,TGI,TK-10 renal,3.04 µM
same,GI50,DU-145 prostate,1.05 µM
same,TGI,DU-145 prostate,2.34 µM
same,GI50,SK-MEL-28 melanoma,1.34 µM
same,TGI,SK-MEL-28 melanoma,2.75 µM
same,GI50,SK-MEL-2 melanoma,1.65 µM
same,TGI,SK-MEL-2 melanoma,4.47 µM
same,GI50,NCI-H226 lung,1.22 µM
same,TGI,NCI-H226 lung,4.12 µM
same,GI50,HCC-2998 colon,1.77 µM
same,TGI,HCC-2998 colon,3.17 µM
same,GI50,MOLT-4 leukemia,1.32 µM
same,TGI,MOLT-4 leukemia,> 100 µM
same,GI50,A498 renal,1.1 µM
same,TGI,A498 renal,2.44 µM
same,GI50,786-0 renal,1.27 µM
same,TGI,786-0 renal,3.05 µM
same,GI50,SK-OV-3 ovarian,1.37 µM
same,TGI,SK-OV-3 ovarian,2.81 µM
same,GI50,MDA-MB-231 breast,1.39 µM
same,TGI,MDA-MB-231 breast,3.2 µM
same,GI50,SF-295 CNS,1.54 µM
same,TGI,SF-295 CNS,3.08 µM
same,GI50,HL-60(TB) leukemia,0.388 µM
same,TGI,HL-60(TB) leukemia,2.64 µM
same,GI50,OVCAR-3 ovarian,0.592 µM
same,TGI,OVCAR-3 ovarian,1.96 µM
same,GI50,LOX IMVI melanoma,0.363 µM
same,TGI,LOX IMVI melanoma,1.44 µM
same,GI50,SK-MEL-5 melanoma,1.19 µM
same,TGI,SK-MEL-5 melanoma,2.43 µM
same,GI50,HT29 colon,0.883 µM
same,TGI,HT29 colon,2.52 µM
same,GI50,UACC-257 melanoma,0.821 µM
same,TGI,UACC-257 melanoma,2.74 µM
same,GI50,CAKI-1 renal,0.331 µM
same,TGI,CAKI-1 renal,1.36 µM
same,GI50,NCI-H23 lung,1.23 µM
same,TGI,NCI-H23 lung,2.62 µM
same,GI50,SW-620 colon,1.17 µM
same,TGI,SW-620 colon,2.7 µM
same,GI50,UACC-62 melanoma,0.455 µM
same,TGI,UACC-62 melanoma,1.86 µM
same,GI50,NCI/ADR-RES ovarian,1.71 µM
same,TGI,NCI/ADR-RES ovarian,4.24 µM
same,GI50,HOP-62 NSCLC,1.4 µM
same,TGI,HOP-62 NSCLC,2.99 µM
same,GI50,COLO 205 colon,1.46 µM
same,TGI,COLO 205 colon,2.9 µM
same,GI50,ACHN renal,0.58 µM
same,TGI,ACHN renal,2.94 µM
same,GI50,BT-549 breast,1.15 µM
same,TGI,BT-549 breast,2.42 µM
same,GI50,HS 578T breast,1.69 µM
same,TGI,HS 578T breast,7.47 µM
same,GI50,K-562 leukemia,1.97 µM
same,TGI,K-562 leukemia,> 100 µM
same,GI50,SF-539 CNS,1.62 µM
same,TGI,SF-539 CNS,3.24 µM
same,GI50,MDA-MB-435,1.09 µM
same,TGI,MDA-MB-435,2.63 µM
same,GI50,HCT-15 colon,1.22 µM
same,TGI,HCT-15 colon,2.89 µM
same,GI50,T-47D breast,1.12 µM
same,TGI,T-47D breast,2.45 µM
same,GI50,OVCAR-4 ovarian,1.57 µM
same,TGI,OVCAR-4 ovarian,7.17 µM
